# Test results: US20240299345A1, “GINKGOLIDE B AND ITS DERIVATIVES FOR INHIBITING AND/OR REVERSING AGING” (CHINA MEDICAL UNIVERSITY, priority 2023, published 2024)
# Tested on: kidney, heart, spleen and liver in aged mice
# Details: mouse, in vivo
# Protocol: All animals were purchased from Laboratory Animal Services Centre, the Chinese University of Hong Kong, ad libitum fed the standard diet (#5V0f, LabDiet, St. Louis, MO, USA), and housed at specific-pathogen-free and humidity-controlled conditions under a 12 light: 12 dark photoperiod with temperature at 20-22° C. Animals were kept up to five per cage and were randomly assigned to control and experimental groups in all experiments. […] For the short-term experiment, 3-(young), 6-(adult) and 20-month-old (aged) female C57BL/6 mice were administered 12 mg/kg body weight GB (#G6910, Sigma-Aldrich, St. Louis, MO, USA) or vehicle daily by oral gavage for two months. […] GB was diluted to the appropriate concentration in 100 μL of sterile PBS (#10378016, Gibco, Waltham, MA, USA).
# Tissue samples were harvested and embedded in paraffin or in OCT (#4583, Sakura Finetek USA, Torrance, CA, USA). For paraffin-embedded samples, 10 μm sections were deparaffinized by xylene and alcohol gradient treatment and were then hydrated by distilled water and processed for heat-induced antigen retrieval with antigen retrieval solution at 70° C. for 1.5 hours before staining. For OCT-embedded samples, 10 μm sections were hydrated by distilled water before staining. Hematoxylin and cosin staining (#MHS16 and #HT110116 Sigma-Aldrich), oil red O staining (#00625, Sigma-Aldrich), and Masson's trichrome staining (#HT15, Sigma-Aldrich) were used to assess the histology, lipid droplet, and collagen deposition. For immunohistochemical staining, antigen-retrieval samples were blocked with 5% bovine serum albumin (BSA) (#A9647, Sigma-Aldrich) for 1 hour at room temperature and incubated with primary antibodies overnight at 4° C., followed by a ready-to-use IHC/ICC Kit (#K405, BioVision, Milpitas, CA, USA) at room temperature. The samples were then suspended with double-distilled water and then stained with hematoxylin. For immunocytochemical staining, samples were blocked with 5% BSA (Sigma-Aldrich) for 1 hour at room temperature and incubated with primary antibodies overnight at 4° C., then washed with PBS for ten minutes, and then incubated with secondary antibody for 1 hour at room temperature, then washed with PBS three times for ten minutes.
structure (smiles),measurement,value
"CC1C(=O)OC2C(O)C34C5CC(C(C)(C)C)C36C(OC(=O)C6O)OC4(C(=O)O5)C12O (centres unmarked) [GB, Ginkgolide B]","circulating GOT, GPT and UA",reduction
same,liver and spleen size,no effect
